Source: patent publication US5985926A, “Method for inhibiting intracellular viral replication” (Cell Therapeutics, Inc., priority 1997, dated 1999)
Entries after “also recorded” stand apart in the source; their conditions may differ.

Columns and labels:
[1] = test system: CMV promoter in 293-EBNA cells; assay: AP reporter gene expression from CMV promoter, 293-EBNA cells stably transfected with pCMV.AP; format: cell-based, human cytomegalovirus; human cells
Procedure, shortened: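 293-EBNA cells carrying episomal pCMV.AP, expressing secreted placental alkaline phosphatase from the CMV enhancer/promoter, treated with various compound concentrations. Reporter expression read as change in A405 of conditioned medium with substrate such as ortho-nitrophenol phosphate.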

NFκB = NFκB activation in 293tat cells, electrophoretic mobility shift assay; format: cell-based, human; details: CT2576 12 μM, TNF-α 40 ng/ml or IL-1β 1 ng/ml
Protocol: Nuclear extracts (A) from 293tat cells were tested by EMSA for activation of NFκB. A radiolabeled 40-mer covering the NFκB sequences in the HIV promoter was used as a probe. Cells were incubated with CT2576 at 12 μM, human TNF-α at 40 ng/ml or IL-1β at 1 ng/ml, or pre-incubated for 30 min. with CT2576 and then stimulated with TNF-α or IL-1β for 18 hr prior to making extracts. RNA was extracted from 293tat cells (B) after treatment with CT2576 without or with TNF-α or IL-1β for 18 hr. Northern blots analysis were performed using probes derived from AP cDNA and G3PDH cDNA as a control for normalization of mRNA level. AP activity was determined in cell supernatants from the various samples.
NFκB binding activity in nuclear extracts (Dignam et al., Nucleic Acids Res. 11:1475-1489, 1983) of cells was measured by electrophoretic mobility-shift assay (EMSA) (Carthew et al., Cell 43:439-448, 1985) using 5'-labeled double-stranded synthetic DNA with two NF-κB motifs. Northern blot analysis was performed with total RNA run on 1% agarose/formaldehyde gel and probed with ^32 P-labeled cDNA of AP and glyceraldehyde-3-phosphate dehydrogenase (G3PDH).

[2] = test system: phosphatidic acid (PA) subspecies in 293tat cells; assay: PA composition of 293tat cells by HPLC; format: cell-based, human
Protocol: One must first quantitatively and qualitatively separate PAs from the other lipids found in serum by a chemical extraction of lipids and high performance liquid chromatography (HPLC) to separate and detect PAs. […] Briefly, the method of Bligh et al. involves an organic extraction of lipids from biological tissue homogenates or fluids. One volume of sample and three volumes of methanol:chloroform (2:1) are vigorously shaken for 2 min. One volume of chloroform is added and then shaken vigorously for 30 sec. One volume of water is added and then shaken vigorously for 30 sec. The mixture is filtered and the upper aqueous layer is discarded. The lower organic layer contains a mixture of lipid classes. The method of Folch et al. involves the extraction of lipids from biological tissue homogenates or body fluids. One volume of sample plus 20 volumes of chloroform:methanol (2:1) are vigorously shaken for 2 min. The mixture is filtered and an amount of 0.1 N KCl equal to 20% of the extraction mixture volume is added and the mixture is shaken vigorously for 2 min. The aqueous and organic phases are allowed to separate. The upper aqueous layer is discarded. The lower organic layer contains a mixture of lipid classes. […] This method involves separation of lipids into their major classes by normal phase (silica) high performance liquid chromatography (HPLC). A 5 micron, 25 cm×0.45 cm silica HPLC column is connected to a binary solvent delivery system followed with a UV detector. The lipid sample is injected on the column and a solvent gradient is run at 1.0 ml/min. The solvent gradient is hexane:isopropanol:water in the proportions 3:4:0.75 run isocratically for 3 min, then ramped to hexane:isopropanol:water in the proportions 3:4:1.4 in 15 min, then run isocratically at the same proportions for 15 min. Detection is at 206 nm.
One of the steps after cell activation involves the hydrolysis of phosphatidylcholine (PC), the major phospholipid of cellular membranes, by phospholipases C and D, leading to the generation of second messengers, such as PA and DG, in the signal transduction cascade.

[3] = test system: HIV-1 strain JR-CSF in PBL; assay: HIV-1 p24 antigen expression in acutely infected peripheral blood lymphocytes (PBL); format: cell-based, HIV-1; human cells; details: Human immunodeficiency virus 1, Lymphocyte, clinical isolate
Protocol: FIG. 17 illustrates a dose response curves of CT2576 on constitutive, TNF-α, and IL-6-mediated expression of HIV-1 in a chronically infected U1 cell line (left Y-axis) and of CT3537 on HIV expression in PBL acutely infected with the JR-CSF primary isolate (right Y-axis). U1 cells were incubated for four days after the addition of CT2576 with or without TNF-α (20 pg/ml) or IL-6 (1 ng/ml). PBL were inoculated with HIV at 10 ng virus/10^6 cells/well and incubated with various concentrations of CT3537 for 7 days. Each data point represents the average expression levels of HIV-1 p24-antigen in the cell supernatants measured by ELISA from triplicate samples with error bar indicating the SD.
Stable cell lines 293tar, 293tat and 293tat2 were generated by transfections using conditions described in (Tate et al., FASEB J. 4:227-231, 1990) with the plasmid pHIV.AP alone or along with either pHIV.tat or pSV2tat72, respectively. The assay of HIV-1 p24 antigen expression in the chronically HIV-1-infected promonocytic line U1 after 4 days and in acutely infected peripheral blood lymphocytes (PBL) after 7 days were described (Peterson et al., J. Clin. Invest. 89:574-580, 1992, and Brighty et al., Proc Natl. Acad. Sci. USA 88:7802-7805, 1991). […]

For `CCCCCCCCNCC(O)CCCCCCCCCN1C(=O)CCN(C)C1=O` (centres unmarked) [CT1829, 3-(11-octylamino-10-hydroxyundecyl)-1-methyldihydrouracil], the IC50 ([1]; Homo sapiens, 293-EBNA, FIG. 8, read-out: concentration inhibiting AP activity by 50% (CMV assay)) was 2 to 6 µM and the “inhibition of AP expression (CMV promoter)” value ([1]; in words) was “inhibit CMV promoter driven expression”.
For `CCCCCCCCNCC(O)CCCCCCCCCn1c(=O)c2c(ncn2C)n(C)c1=O` (centres unmarked) [CT2576, 1-(11-octylamino-10-hydroxyundecyl)-3,7-dimethylxanthine], the “activation of NFκB” value (NFκB) was “did not inhibit TNF-α dependent activation of NFκB”, the “effect on generation of myrPA species / turnover of PA subspecies” value [2] was “affected the turnover of PA subspecies; also recorded: affects the generation of myrPA species” and the “long chain unsaturated PA, share of far UV absorbing lipids after preincubation” value ([2]; 8 μM CT2576) was 15%. For the same compound, the “long chain unsaturated PA, share of far UV absorbing lipids after 2 minutes TNF-α” value ([2]; 8 μM CT2576, 2 minutes of TNF-α) was 20%, the “short chained saturated PA subspecies” value ([2]; preincubation with 8 μM CT2576) was “less after CT2576 preincubation than without treatment; also recorded: very little change with addition of TNF-α” and the IC50 [3] was ~1000 nM.
